Columns and labels:
Format in all cases: in vivo, human
[1] = tested on: glucose levels detected by CGM; assay: CGM (Dexcom G6) glucose sensing at meals with injection at the sensor site; conditions: FIG. 26
Protocol: This effect was further investigated in a similar experiment to investigate the effect of glucagon on the performance of CGMs. Again, 2 subjects were used showing data from 12 meals in a non-diabetic […] and 11 meals in a non-diabetic […] collected with Dexcom G6 CGMs. The subjects wore two CGMs placed symmetrically on the lateral side of each overarm. 1-3 minutes before the start of ingesting the meal 0.1 ml of glucagon (1 mg/ml) was injected at the site of one CGM and 0.1 ml of placebo (saline (0.9%) on the contralateral site of CGM. Before each meal, the site of glucagon delivery was decided by a new randomization.

[2] = tested on: local blood flow; assay: Impact of injection technique (speed) on local blood flow, laser Doppler; conditions: abdomen
Protocol: To observe the impact of injection technique, and particularly speed of injection, on the effect induced by subcutaneous injection of glucagon, an experiment was conducted to compare 2 different injection techniques; one where the injection lasted 1-3 seconds (technique 1), and one where the injection lasted at least 10 seconds (technique 2). 6 injections were given with technique 1 and 4 injections were given with technique 2. In each case, 0.1 mg of glucagon (in a 0.1 ml injection) was injected subcutaneously into the abdomen of the subjects. For each technique, half of the injections were given to a subject and half to a subject. Blood flow was measured on the skin surface at the site of administration by laser Doppler technology.
In addition, in FIG. 21 the same results are shown together with the results of placebo injections of 0.1 ml of 0.9% saline using the same 2 techniques. For technique 1, 6 placebo injections were given, and for technique 2, 2 placebo injections were given. Again, half of the injections with each technique were done in a subject, and half were done in a subject.

[3] = tested on: blood flow in the skin; assay: Local skin blood flow by laser Doppler after subcutaneous injection
Description: Likewise, the compound with glucagon activity may be administered in an amount which is effective to achieve a local vasodilatory effect, or an effect of increasing local blood flow at the site of its administration. Vasodilatory activity may be assessed, or determined, by measuring blood flow by a laser Doppler method, at an administration site on or in a human or non-human animal subject after administration of the compound. For example, the compound may be injected SC and blood flow just below the skin surface may be determined at the injection site. Such a method is described in Example 1. However, for the methods and uses herein where the compound is used for its effect in the delivery of a therapeutically active agent (e.g. insulin) or in conjunction with the operation of a sensor (e.g. glucose sensor), it is not necessary, and indeed it may be undesirable, for the compound to exert its usual therapeutic effect of increasing blood glucose, or counteracting an episode of hypoglycaemia. The amount, or dose, administered may thus be less, and indeed typically will be less, than a dose which is administered, or typically used, to treat hypoglycaemia. Doses for the compound are discussed in more detail below.
An experiment was performed on 2 young healthy adult human volunteers. The effect of subcutaneous (hereinafter, SC) injections on blood flow in the skin were tested 6 times in the 2 subjects (4 tests in a subject and 2 tests in a subject). The glucagon was administered by SC injection of 0.1 ml of 1 mg/ml glucagon (i.e. an injection containing 0.1 mg of glucagon) to sites on the lateral side of both upper arms of the subjects. Blood flow was measured on the skin surface at the site of administration by laser Doppler technology. As a control the same volume of physiological saline (0.9%) was injected as a placebo at the same sites.
This effect was further investigated in a similar experiment with varying doses of glucagon. Again, the same 2 subjects were used, and SC injections of glucagon or placebo were given 6 times (4 tests in a subject and 2 tests in a subject). The glucagon was administered to sites on the lateral sides of both upper arms in amounts of 0.1 mg, 0.015 mg and 0.01 mg (0.1 ml of glucagon at concentrations of 0.1 mg/ml, 0.015 mg/ml and 0.01 mg/ml, respectively). Blood flow was measured on the skin surface at the site of administration by laser Doppler technology. As a control the same volume of physiological saline (0.9%) was injected as a placebo at the same sites.
Further experiments were conducted to investigate the effect on local blood flow of subcutaneous injections of glucagon in the abdomen. Again, 2 subjects were used, and SC injections of glucagon or placebo were given 6 times (3 tests in a subject and 3 tests in a subject). The glucagon was administered by SC injection of 0.1 ml of 1 mg/ml glucagon (i.e. an injection containing 0.1 mg of glucagon) to sites on both sides of the abdomen of the subjects. Blood flow was measured on the skin surface at the site of administration by laser Doppler technology. As a control the same volume of physiological saline (0.9%) was injected as a placebo at the same sites.
This effect was further investigated in a similar experiment with varying doses of glucagon. Again, 2 subjects were used, and SC injections of glucagon or placebo were given 6 times (3 tests in a subject and 3 tests in a subject). The glucagon was administered to sites on both sides of the abdomen in amounts of 0.1 mg, 0.05 mg and 0.015 mg (0.1 ml of glucagon at concentrations of 0.1 mg/ml, 0.05 mg/ml and 0.015 mg/ml, respectively). Blood flow was measured on the skin surface at the site of administration by laser Doppler technology. As a control the same volume of physiological saline (0.9%) was injected as a placebo at the same sites. […]

[4] = tested on: local blood flow; assay: Impact of laser Doppler probe placement on measured local blood flow; conditions: 0.015 mg SC, upper arms
Protocol: The impact of the placement of the laser Doppler probe on the measured effect of glucagon injections on local blood flow was investigated by giving injections at multiple sites with varying distances from the probe. The experiment involved the subcutaneous injection of 0.015 mg of glucagon (in 0.1 ml) or 0.1 ml of 0.9% saline as a control at sites on the lateral sides of the upper arms of the subjects. The injections were given either under the probe, 1.6 cm from the probe centre, 3 cm from the probe centre, or 5 cm from the probe centre. In each case, 6 injections were given, except for 1.6 cm from the probe centre where only 4 saline injections were given. In all cases, half of the injections were given to a subject and half to a subject, except for under the probe, where 4 tests were done on the subject and 2 on the subject. Blood flow was measured on the skin surface by laser Doppler technology.

Substance: glucagon
- glucose levels detected by CGM after meal versus placebo site ([1]; 0.1 ml of 1 mg/ml injected at CGM site 1-3 minutes before meal, overarm, 23 meals): faster and larger increase in glucose levels detected compared to placebo
- time at which the effect on CGM glucose can be clearly seen ([1]; in one of the subjects): 10 min
- persistence of effect of the "slow" injection on local blood flow ([2]; 0.1 mg SC, technique 2, versus fast glucagon and placebo injections): more persistent than the effects of any of the other injections
- increase in local blood flow, technique 2 (injection at least 10 seconds) versus technique 1 (1-3 seconds) ([2]; 0.1 mg in 0.1 ml SC, FIG. 20/21): significantly larger increase in local blood flow
- increase in local blood flow relative to higher doses ([3]; 0.01 mg SC, lateral upper arms, FIG. 15): similar, although less pronounced
- effect on local blood flow relative to control injection ([3]; 0.01 mg SC, thighs, FIG. 23/24): did not appear to have a significant effect on local blood flow
- effect on local blood flow relative to control injection ([3]; 0.015 mg SC, abdomen, FIG. 18/19): did not appear to have a significant effect on local blood flow
- increase in local blood flow ([3]; 0.015 mg SC, lateral upper arms, average of 6 tests, FIG. 15): 400-450 % of the baseline reading
- increase in local blood flow among doses ([3]; 0.03 mg SC, thighs, FIG. 23/24): biggest increase in local blood flow
- initial increase in local blood flow ([3]; 0.05 mg SC, abdomen, FIG. 18/19): did not result in a significant increase in local blood flow initially
- local blood flow versus control injection after 15 minutes ([3]; 0.05 mg SC, abdomen, after 15 minutes): higher than that observed at the same time after the control injection
- persistence of increase in local blood flow versus control ([3]; 0.05 mg SC, thighs, FIG. 22): more persistent than that observed following administration of the control
- time after which blood flow values of glucagon and placebo were approximately equal ([3]; 0.05 mg SC, thighs, FIG. 22): around 30 minutes
- increase in local blood flow versus saline control ([3]; 0.05 mg SC, thighs, FIG. 23/24): slightly larger than that observed following administration of the saline control
- persistence of increase in local blood flow versus saline control ([3]; 0.05 mg SC, thighs, FIG. 23/24): significantly more persistent
- increase in local blood flow versus saline ([3]; 0.05 mg SC, thighs, average of 7 tests, FIG. 22): slightly greater than that observed when saline was administered
- persistence of increase in local blood flow versus control ([3]; 0.1 mg SC, abdomen, FIG. 17): more persistent than that observed following administration of the control
- time after which blood flow values of glucagon and placebo were approximately equal ([3]; 0.1 mg SC, abdomen, FIG. 17): around 30 minutes
- initial increase in local blood flow versus control ([3]; 0.1 mg SC, abdomen, FIG. 18/19): greater than that seen following the administration of the same control
- increase in local blood flow versus saline ([3]; 0.1 mg SC, abdomen, average of 6 tests, FIG. 17): slightly greater than that observed when saline was administered
- blood flow after returning to "normal" versus before injection ([3]; 0.1 mg SC, lateral upper arms, FIG. 14): increased compared to before the glucagon injection
- effect on local blood flow (flow increase) ([3]; 0.1 mg SC, lateral upper arms, average of 6 tests, FIG. 14): several hundred percent
- increase in local blood flow ([3]; 0.1 mg SC, lateral upper arms, average of 6 tests, FIG. 15): 400-450 % of the baseline reading
- period over which the vasodilatory effect can be seen ([3]; SC, upper arms, FIG. 15): 35 to 40 min
- increase of blood flow at the site of administration ([3]; administered sub-cutaneously, small blood vessels in the skin (summary statement)): several hundred percent
- persistence of increase in blood flow ([3]; all doses (0.1, 0.015, 0.01 mg) SC, upper arms, not seen with placebo): found to persist even once the value had stabilised
- dose at which a vasodilatory effect has been observed ([3]; in certain body regions, in some subjects): < 0.01 mg
- change in local blood flow on administration ([3]; summary of the Examples): immediate and large increase in local blood flow
- level to which blood flow returns ([3]; summary of the Examples, maintained over a prolonged period): higher than the baseline level before glucagon administration
- effect on blood flow versus placebo ([4]; injection 1.6 cm or 3 cm from probe centre): larger than placebo
- effect on blood flow versus placebo ([4]; injection 5 cm from probe centre): except for injection 5 cm from the probe the effect was larger than placebo
- increase in local blood flow, placebo subtracted ([4]; injection at greater distances (1.6, 3 or 5 cm from probe centre)): less significant
- increase in local blood flow, placebo subtracted ([4]; injection directly under the probe, FIG. 25): largest increase in local blood flow
